From patent US20240391862A1, “(1,4,5-TRISUBSTITUTED-1H-PYRAZOL-3-YL)OXY-2-ALKOXY ALKYL ACIDS AND THEIR DERIVATIVES, THEIR SALTS AND THEIR USE AS HERBICIDAL AGENTS” (Bayer AKtiengesellschaft, priority 2021, published 2024)

What was measured:
[1] = test system: ORYSA; assay: Pre-emergence herbicidal effect and crop plant compatibility, greenhouse pot test; assay type: in vivo, Oryza sativa; settings: scored visually after about 3 weeks vs untreated controls
Excerpt: (§1) Seeds of monocotyledonous and dicotyledonous weed plants and crop plants are placed in plastic or organic planting pots and covered with soil. The compounds of the invention, formulated in the form of wettable powders (WP) or as emulsion concentrates (EC), are then applied to the surface of the covering soil as aqueous suspension or emulsion with addition of 0.5% additive at a water application rate equivalent to 600 l/ha. After the treatment, the pots are placed in a greenhouse and kept under good growth conditions for the trial plants. After about 3 weeks, the effect of the preparations is scored visually in comparison with untreated controls as percentages. For example, 100% activity=the plants have died, 0% activity=like control plants.
(§2) Tables 1a to 19c below show the effects/crop compatibilities of selected compounds of the general formula (I) on various harmful plants at an application rate corresponding to 20 to 320 g/ha, which were obtained by the trial procedure specified above.
(§3) • ALOMY: Alopecurus myosuroides SETVI: Setaria viridis • AVEFA: Avena fatua POLCO: Fallopia convolvulus • AMARE: Amaranthus retroflexus ECHCG: Echinochloa crus-galli • LOLRJ: Lolium rigidum STEME: Stellaria media • VERPE: Veronica persica MATIN: Tripleurospermum inodorum • DIGSA: Digitaria sanguinalis ABUTH: Abutylon threophrasti • TRZAS: Triticum aestivum VIOTR: Viola tricolor • BRSNW: Brassica napus ZEAMX: Zea mays • PHBPU: Ipomoea purpurea GLXMA: Glycine max • ORYSA: Oryza sativa HORMU: Hordeum murinum

[2] = test system: GLXMA; assay: as above; assay type: in vivo, Glycine max; settings: scored visually after about 3 weeks vs untreated controls
Excerpt: as §1, §2, §3

[3] = test system: BRSNW; assay: as above; assay type: in vivo, Brassica napus; settings: scored visually after about 3 weeks vs untreated controls
Excerpt: as §1, §2, §3

[4] = test system: SETVI; assay: Pre-emergence herbicidal effect, greenhouse pot test; assay type: in vivo, Setaria viridis; settings: Setaria viridis, 504 h, 320 g/ha, scored visually after about 3 weeks vs untreated controls, read-out: Pre-emergence effect at 320 g/ha against SETVI in %
Excerpt: as §1, §2, §3

[5] = test system: ZEAMX; assay: Post-emergence herbicidal effect and crop plant compatibility, greenhouse pot test; assay type: in vivo, Zea mays; settings: one-leaf stage, rated visually after about 3 weeks vs untreated controls; for plant injury at 80 g/ha: Zea mays, 504 h, read-out: Post-emergence effect at 80 g/ha against ZEAMX in %
How it was run: (§4)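 Sandy loam pots, greenhouse. One-leaf stage (2–3 wk after sowing) foliar spray; WP/EC in water + 0.5% additive, 600 l/ha; 20–320 g/ha. Visual score ~3 wk, 0–100% vs untreated.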

[6] = test system: ORYSA; assay: as above; assay type: in vivo, Oryza sativa; settings: for Post-emergence effect at 320 g/ha against ORYSA in %: one-leaf stage, rated visually after about 3 weeks vs untreated controls; for Post-emergence effect against ORYSA: 80 g/ha, visual rating about 3 weeks after treatment, crop plant
How it was run: as §4

[7] = test system: ZEAMX; assay: Pre-emergence herbicidal effect and crop plant compatibility, greenhouse pot test; assay type: in vivo, Zea mays; settings: scored visually after about 3 weeks vs untreated controls
Excerpt: as §1, §2, §3

[8] = test system: TRZAS; assay: as above; assay type: in vivo, Triticum aestivum; settings: scored visually after about 3 weeks vs untreated controls
Excerpt: as §1, §2, §3

[9] = test system: AMARE; assay: Pre-emergence herbicidal effect, greenhouse pot test; assay type: in vivo, Amaranthus retroflexus; settings: Amaranthus retroflexus, 504 h, 320 g/ha, scored visually after about 3 weeks vs untreated controls, read-out: Pre-emergence effect at 320 g/ha against AMARE in %
Excerpt: as §1, §2, §3

[10] = test system: ECHCG; assay: Post-emergence herbicidal effect, greenhouse pot test; assay type: in vivo, Echinochloa crus-galli; settings: Echinochloa crus-galli, 504 h, 320 g/ha, read-out: Post-emergence effect against ECHCG in %
How it was run: (§5)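 Visual % activity scored roughly 3 weeks post-spray against untreated plants, where 100% means death and 0% equals control. Plants were treated at the one-leaf stage, 2 to 3 weeks after sowing in sandy loam, at 20 to 320 g/ha.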

[11] = test system: SETVI; assay: as above; assay type: in vivo, Setaria viridis; settings: Setaria viridis, 504 h, 320 g/ha, read-out: Post-emergence effect against SETVI in %
How it was run: as §5

[12] = test system: VERPE; assay: as above; assay type: in vivo, Veronica persica; settings: Veronica persica, 504 h, 320 g/ha, read-out: Post-emergence effect against VERPE in %
How it was run: as §5

[13] = test system: ALOMY; assay: as above; assay type: in vivo, Alopecurus myosuroides; settings: Alopecurus myosuroides, 504 h, 320 g/ha, visual rating about 3 weeks after treatment, read-out: Post-emergence effect against ALOMY
How it was run: as §5

[14] = test system: MATIN; assay: as above; assay type: in vivo, Tripleurospermum inodorum; settings: Tripleurospermum inodorum, 504 h, 320 g/ha, read-out: Post-emergence effect against MATIN in %
How it was run: as §5

[15] = test system: TRZAS; assay: Post-emergence herbicidal effect and crop plant compatibility, greenhouse pot test; assay type: in vivo, Triticum aestivum; settings: for Post-emergence effect against TRZAS: visual rating about 3 weeks after treatment, crop plant
How it was run: as §4

[16] = test system: GLXMA; assay: as above; assay type: in vivo, Glycine max; settings: visual rating about 3 weeks after treatment, crop plant
Excerpt: as §3
Seeds of monocotyledonous and dicotyledonous weeds and crop plants are placed in sandy loam in plastic or organic planting pots, covered with soil and cultivated in a greenhouse under controlled growth conditions. 2 to 3 weeks after sowing, the trial plants are treated at the one-leaf stage. The compounds of the invention, formulated in the form of wettable powders (WP) or as emulsion concentrates (EC), are then sprayed onto the green parts of the plants as aqueous suspension or emulsion with addition of 0.5% additive at a water application rate of 600 l/ha (converted). After the test plants have been kept in the greenhouse under optimum growth conditions for about 3 weeks, the activity of the preparations is rated visually in comparison to untreated controls. For example, 100% activity=the plants have died, 0% activity=like control plants.
Tables 20a to 38c below show the effects/crop compatibilities of selected compounds of the general formula (I) on various harmful plants at an application rate corresponding to 20 to 320 g/ha, which were obtained by the trial procedure specified above.

[17] = test system: ABUTH; assay: Post-emergence herbicidal effect, greenhouse pot test; assay type: in vivo, Abutilon theophrasti; settings: visual rating about 3 weeks after treatment
How it was run: as §5

[18] = test system: AMARE; assay: as above; assay type: in vivo, Amaranthus retroflexus; settings: 320 g/ha, visual rating about 3 weeks after treatment
How it was run: as §5

[19] = test system: PHBPU; assay: as above; assay type: in vivo, Ipomoea purpurea; settings: 320 g/ha
How it was run: as §5

| SMILES | Pre-emergence effect at 80 g/ha against ORYSA in % [1] | Pre-emergence effect at 320 g/ha against ORYSA in % [1] | Pre-emergence effect at 80 g/ha against GLXMA in % [2] | Pre-emergence effect at 320 g/ha against GLXMA in % [2] | Pre-emergence effect at 80 g/ha against BRSNW in % [3] | Pre-emergence effect at 320 g/ha against BRSNW in % [3] | plant injury at 80 g/ha [5] | Post-emergence effect at 320 g/ha against ORYSA in % [6] | Pre-emergence effect at 80 g/ha against ZEAMX in % [7] | Pre-emergence effect at 320 g/ha against ZEAMX in % [7] | Pre-emergence effect at 320 g/ha against TRZAS in % [8] | pest or weed control at 320 g/ha [10] | pest or weed control at 320 g/ha [11] | pest or weed control at 320 g/ha [12] | Pre-emergence effect at 80 g/ha against TRZAS in % [8] | Post-emergence effect at 80 g/ha against ZEAMX in % [5] | Post-emergence effect at 320 g/ha against ZEAMX in % [5] | Post-emergence effect against TRZAS ([15]; 80 g/ha) | Post-emergence effect against TRZAS ([15]; 320 g/ha) | Post-emergence effect against ORYSA [6] | other results |
| --- | --- | --- | --- | --- | --- | --- | --- | --- | --- | --- | --- | --- | --- | --- | --- | --- | --- | --- | --- | --- | --- |
| CCOC(=O)C(OCC)Oc1nn(-c2ncccc2F)c(-c2ccc(Cl)cc2)c1Br (stereo not shown) [Example I-02] | 0% | 0% | 0% | 0% | 0% | 0% | 10% | 10% | – | – | – | – | – | – | – | – | – | – | – | – | pest or weed control at 320 g/ha [4]: 80% |
| COC(=O)C(OC)Oc1nn(-c2ncccc2F)c(-c2ccc(Cl)cc2)c1Br (stereo not shown) [Example I-03] | 0% | – | 20% | – | 20% | – | 20% | 10% | 20% | 20% | 0% | 80% | 80% | 90% | – | – | – | – | – | – | pest or weed control at 320 g/ha [9]: 80% |
| CCOC(=O)C(OCC)Oc1nn(-c2ncccc2F)c(-c2ccc(F)cc2F)c1Br (stereo not shown) [Example I-08] | 0% | 0% | 0% | – | – | – | – | – | 0% | 10% | 0% | 80% | 80% | 80% | 0% | – | – | – | – | – | pest or weed control at 320 g/ha [13]: 90%; pest or weed control at 320 g/ha [14]: 80% |
| CCOC(=O)C(OCC)Oc1nn(-c2ccc(Cl)cc2F)c(-c2ccc(F)cc2F)c1Br (stereo not shown) [Example I-09] | – | – | 10% | 10% | 0% | 0% | – | – | – | 10% | 20% | – | – | – | 0% | 0% | 0% | 0% | 0% | 10% | Post-emergence effect against GLXMA ([16]; 80 g/ha): 10%; Post-emergence effect against GLXMA ([16]; 320 g/ha): 20% |
| COC(=O)C(OC)Oc1nn(-c2ccc(Cl)cc2F)c(-c2ccc(F)cc2F)c1Br (stereo not shown) [Example I-11] | – | – | 0% | 0% | – | – | – | – | 0% | – | 0% | – | – | – | 0% | 0% | 0% | 0% | 0% | 0% | Post-emergence effect against GLXMA ([16]; 80 g/ha): 20% |
| COC(=O)C(OC)Oc1nn(-c2cccc(C)c2F)c(-c2ccc(F)nc2)c1C1CC1 (stereo not shown) [Example I-93] | – | – | – | – | – | – | – | – | – | – | – | – | – | – | – | – | – | 10% | 20% | – | Post-emergence effect at 20 g/ha against ZEAMX in % ([5]; 20 g/ha): 10%; Post-emergence effect at 20 g/ha against TRZAS in % ([15]; 20 g/ha, one-leaf stage, rated visually after about 3 weeks vs untreated controls): 0%; Post-emergence effect against GLXMA ([16]; 20 g/ha): 20%; Post-emergence effect against ABUTH ([17]; 80 g/ha): 80%; Post-emergence effect against ABUTH ([17]; 320 g/ha): 90%; Post-emergence effect against AMARE [18]: 90%; Post-emergence effect against PHBPU in % [19]: 80% |
